Measurements from PMC10425983 (ACS Infectious Diseases, 2023).

Columns and labels:
[1] = Cytotoxicity toward primary peritoneal mouse macrophages; format: cell-based; details: Swiss, mouse, primary peritoneal mouse macrophages (PMM), PMM pCC50, primary mouse macrophages; highest in-test concentration 64 μM
[2] = test system: L. infantum (MHOM/MA(BE)/67/ITMAP263) amastigotes; experiment: L. infantum intramacrophage amastigote assay; format: cell-based, Leishmania infantum; details: for EC50: Leishmania infantum, 120 h, read-out: L.inf pEC50 (converted); for SI: ratio CC50 μM (PMM)/EC50 μM (L.inf)
[3] = Human liver microsome intrinsic clearance; format: in vitro ADME; details: for microsomal CLint at 3 µM: human, human liver microsomes, pH 7.4, HLM clint
[4] = Rat hepatocyte intrinsic clearance; format: in vitro ADME; details: for hepatocyte CLint: rat, rat hepatocytes
[5] = Thermodynamic aqueous solubility; format: physicochemical
[6] = Free plasma concentration; format: in vitro ADME; details: free fraction in plasma
[7] = test system: primary peritoneal mouse macrophages (PMM); experiment: Cytotoxicity toward primary peritoneal mouse macrophages; format: cell-based; details: primary mouse macrophages; highest in-test concentration 64 μM

| Structure (SMILES) | CC50 at 5 days [1] | EC50 [2] | SI [2] | metabolic stability class in human liver microsomes ([3]; clearance class in words) | metabolic stability class in rat hepatocytes ([4]; clearance class in words) | microsomal CLint at 3 µM [3] | hepatocyte CLint [4] | aq. sol. [5] | free plasma concentration [6] | PMM pCC50 [7] |
| --- | --- | --- | --- | --- | --- | --- | --- | --- | --- | --- |
| COc1ccc2nc(-c3ccccn3)c(Nc3ccc(F)cc3)n2c1 [Compound 3f, N-(4-Fluorophenyl)-6-methoxy-2-(pyridin-2-yl)imidazo[1,2-a]pyridin-3-amine] | 31.6 µM | 2 µM | 16 | – | – | – | – | – | – | – |
| Fc1ccc(Nc2c(-c3ccccn3)nc3ccccn23)nc1 [Compound 8, 5-Fluoro-N-[2-(pyridin-2-yl)imidazo[1,2-a]pyridin-3-yl]pyridin-2-amine] | – | – | – | moderate (8.6 ≤ moderate ≤47) | moderate (5.1 ≤ moderate ≤27) | – | – | – | – | – |
| Fc1ccc(Nc2c(-c3ccccn3)nc3cnccn23)cc1 [Compound 3j, N-(4-Fluorophenyl)-2-(pyridin-2-yl)imidazo[1,2-a]pyrazin-3-amine] | > 63.1 µM | > 63.1 µM | 1 | – | – | 202 µL/min/mg | 64.2 µL/min/1e6 cells | 61 µM | – | – |
| Fc1ccc(Nc2c(-c3ccccn3)nc3ccc(-c4cnoc4)cn23)cc1 [Compound 3q, N-(4-Fluorophenyl)-6-(1,2-oxazol-4-yl)-2-(pyridin-2-yl)imidazo[1,2-a]pyridin-3-amine] | > 63.1 µM | 25.1 µM | 3 | – | – | 75 µL/min/mg | 128 µL/min/1e6 cells | 3 µM | – | – |
| Fc1ccc(Nc2c(-c3ccccn3)nc3c(F)cccn23)cc1 [Compound 3k, 8-Fluoro-N-(4-fluorophenyl)-2-(pyridin-2-yl)imidazo[1,2-a]pyridin-3-amine] | > 63.1 µM | 39.8 µM | 2 | – | – | 220 µL/min/mg | 101 µL/min/1e6 cells | 12 µM | – | – |
| Fc1ccc(Nc2c(-c3ccccn3)nc3cc(F)ccn23)cc1 [Compound 3h, 7-Fluoro-N-(4-fluorophenyl)-2-(pyridin-2-yl)imidazo[1,2-a]pyridin-3-amine] | > 63.1 µM | 25.1 µM | 3 | – | – | > 300 µL/min/mg | 146 µL/min/1e6 cells | 0.1 µM | – | – |
| COc1ccn2c(Cl)c(-c3ccccn3)nc2c1 [Compound 12, 3-Chloro-7-methoxy-2-(pyridin-2-yl)imidazo[1,2-a]pyridine] | 31.6 µM | 15.8 µM | 2 | – | – | > 300 µL/min/mg | 17 µL/min/1e6 cells | 562 µM | – | – |
| Fc1ccc(Nc2c(-c3ccccn3)nc3cccnn23)cc1 [Compound 3d, N-(4-Fluorophenyl)-2-(pyridin-2-yl)imidazo[1,2-b]pyridazin-3-amine] | 31.6 µM | 15.8 µM | 2 | – | – | 212 µL/min/mg | > 300 µL/min/1e6 cells | 68 µM | – | – |
| Fc1ccc(Nc2c(-c3ccccn3)nc3ccc(F)cn23)cc1 [Compound 3e, 6-Fluoro-N-(4-fluorophenyl)-2-(pyridin-2-yl)imidazo[1,2-a]pyridin-3-amine] | 50.1 µM | 7.94 µM | 6 | – | – | > 300 µL/min/mg | > 300 µL/min/1e6 cells | 25 µM | – | – |
| Fc1ccc(Nc2c(-c3ccccn3)nc3cccc(F)n23)cc1 [Compound 3b, 5-Fluoro-N-(4-fluorophenyl)-2-(pyridin-2-yl)imidazo[1,2-a]pyridin-3-amine] | > 63.1 µM | 7.94 µM | 8 | – | – | 60 µL/min/mg | 190 µL/min/1e6 cells | 26 µM | – | – |
| COc1ccc2nc(-c3ccccn3)c(N(C)c3ccc(F)cc3)n2c1 [Compound 4n, N-(4-Fluorophenyl)-6-methoxy-N-methyl-2-(pyridin-2-yl)imidazo[1,2-a]pyridin-3-amine] | – | – | – | – | – | – | – | – | 2% | – |
| COc1cccn2c(Nc3ccc(F)cc3)c(-c3ccccn3)nc12 [Compound 3l, N-(4-Fluorophenyl)-8-methoxy-2-(pyridin-2-yl)imidazo[1,2-a]pyridin-3-amine] | > 63.1 µM | 7.94 µM | 8 | – | – | 143 µL/min/mg | 29 µL/min/1e6 cells | 2 µM | – | – |
| Fc1ccc(Nc2c(-c3ccccn3)nc3sccn23)cc1 [Compound 3r, N-(4-Fluorophenyl)-6-(pyridin-2-yl)imidazo[2,1-b][1,3]thiazol-5-amine] | 31.6 µM | 7.94 µM | 4 | – | – | 270 µL/min/mg | > 300 µL/min/1e6 cells | 76 µM | – | – |
| COc1cccc2nc(-c3ccccn3)c(Nc3ccc(F)cc3)n12 [Compound 3c, N-(4-Fluorophenyl)-5-methoxy-2-(pyridin-2-yl)imidazo[1,2-a]pyridin-3-amine] | 7.94 µM | 7.94 µM | 1 | – | – | 28 µL/min/mg | 30 µL/min/1e6 cells | 62 µM | – | – |
| COc1ccn2cc(-c3ccccn3)nc2c1 [Compound 11b, 7-Methoxy-2-(pyridin-2-yl)imidazo[1,2-a]pyridine] | > 63.1 µM | 25.1 µM | 3 | – | – | > 300 µL/min/mg | – | 723 µM | – | – |
| CSc1ccc2nc(-c3ccccn3)c(Nc3ccc(F)cc3)n2c1 [Compound 3n, N-(4-Fluorophenyl)-6-(methylsulfanyl)-2-(pyridin-2-yl)imidazo[1,2-a]pyridin-3-amine] | 7.94 µM | 7.94 µM | 1 | – | – | 247 µL/min/mg | > 300 µL/min/1e6 cells | 0.5 µM | – | – |
| Fc1ccc(Nc2c(-c3ccccn3)nc3ncccn23)cc1 [Compound 3m, N-(4-Fluorophenyl)-2-(pyridin-2-yl)imidazo[1,2-a]pyrimidin-3-amine] | > 63.1 µM | 50.1 µM | 1 | – | – | 42.4 µL/min/mg | 64.8 µL/min/1e6 cells | 180 µM | – | – |
| Fc1ccc(Nc2c(-c3ccccn3)nc3ccncn23)cc1 [Compound 3g, N-(4-Fluorophenyl)-2-(pyridin-2-yl)imidazo[1,2-c]pyrimidin-3-amine] | > 63.1 µM | 50.1 µM | 1 | – | – | – | – | 64 µM | – | – |
| Fc1ccc(Nc2c(-c3ccccn3)nc3ccccn23)cc1 [Compound 3a, N-(4-Fluorophenyl)-2-(pyridin-2-yl)imidazo[1,2-a]pyridin-3-amine] | – | 3.98 µM | 16 | – | – | 137 µL/min/mg | > 300 µL/min/1e6 cells | 8 µM | – | < 4.2 |
| CS(=O)(=O)c1ccc2nc(-c3ccccn3)c(Nc3ccc(F)cc3)n2c1 [Compound 3o, N-(4-Fluorophenyl)-6-methanesulfonyl-2-(pyridin-2-yl)imidazo[1,2-a]pyridin-3-amine] | 31.6 µM | 31.6 µM | 1 | – | – | – | > 300 µL/min/1e6 cells | 5 µM | – | – |
| c1ccc(-c2cn3ccccc3n2)nc1 [Compound 11a, 2-(Pyridin-2-yl)imidazo[1,2-a]pyridine] | > 63.1 µM | 50.1 µM | 1 | – | – | 130 µL/min/mg | 140 µL/min/1e6 cells | 828 µM | – | – |
| COc1ccn2c(N)c(-c3ccccn3)nc2c1 [Compound 7b, 7-Methoxy-2-(pyridin-2-yl)imidazo[1,2-a]pyridin-3-amine] | > 63.1 µM | 31.6 µM | 2 | – | – | 120 µL/min/mg | 7.1 µL/min/1e6 cells | 290 µM | – | – |
